Measurements from PubChem BioAssay (NCI).
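Where inhibition never reached the appropriate level, the endpoint shown equals the highest concentration tested. Otherwise, values were interpolated linearly from a five-concentration, 48-hour dose response in 96-well plates. GI50: concentration for 50% inhibition of growth. TGI is the concentration that stops growth completely.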

Tests used:
Test in all cases: DTP human tumour cell line panel, 48 h
SF-539 CNS = system: SF-539 CNS
EKVX NSCLC = system: EKVX NSCLC
OVCAR-4 ovarian = system: OVCAR-4 ovarian
DU-145 prostate = system: DU-145 prostate
MDA-MB-435 = system: MDA-MB-435
MDA-MB-231 breast = system: MDA-MB-231 breast
HT29 colon = system: HT29 colon
SK-MEL-2 melanoma = system: SK-MEL-2 melanoma
NCI-H226 lung = system: NCI-H226 lung
SF-295 CNS = system: SF-295 CNS
MOLT-4 leukemia = system: MOLT-4 leukemia
UO-31 renal = system: UO-31 renal
TK-10 renal = system: TK-10 renal
HOP-92 NSCLC = system: HOP-92 NSCLC
MCF7 breast = system: MCF7 breast
IGROV1 ovarian = system: IGROV1 ovarian
KM12 colon = system: KM12 colon
HS 578T breast = system: HS 578T breast
SW-620 colon = system: SW-620 colon
NCI-H522 lung = system: NCI-H522 lung
UACC-257 melanoma = system: UACC-257 melanoma
OVCAR-3 ovarian = system: OVCAR-3 ovarian
BT-549 breast = system: BT-549 breast
SNB-19 CNS = system: SNB-19 CNS
ACHN renal = system: ACHN renal
HCC-2998 colon = system: HCC-2998 colon
U251 CNS = system: U251 CNS
HCT-116 colon = system: HCT-116 colon
HL-60(TB) leukemia = system: HL-60(TB) leukemia
SN12C renal = system: SN12C renal
SK-MEL-28 melanoma = system: SK-MEL-28 melanoma
MALME-3M melanoma = system: MALME-3M melanoma
LOX IMVI melanoma = system: LOX IMVI melanoma
K-562 leukemia = system: K-562 leukemia
CAKI-1 renal = system: CAKI-1 renal
RPMI-8226 leukemia = system: RPMI-8226 leukemia
UACC-62 melanoma = system: UACC-62 melanoma
OVCAR-5 ovarian = system: OVCAR-5 ovarian
HOP-62 NSCLC = system: HOP-62 NSCLC
SR leukemia = system: SR leukemia
NCI-H23 lung = system: NCI-H23 lung
786-0 renal = system: 786-0 renal
SF-268 CNS = system: SF-268 CNS
NCI-H460 lung = system: NCI-H460 lung
A498 renal = system: A498 renal
HCT-15 colon = system: HCT-15 colon
CCRF-CEM leukemia = system: CCRF-CEM leukemia
NCI/ADR-RES ovarian = system: NCI/ADR-RES ovarian
SK-OV-3 ovarian = system: SK-OV-3 ovarian
COLO 205 colon = system: COLO 205 colon
A549 NSCLC = system: A549 NSCLC
SNB-75 CNS = system: SNB-75 CNS
OVCAR-8 ovarian = system: OVCAR-8 ovarian
M14 melanoma = system: M14 melanoma
PC-3 prostate = system: PC-3 prostate
SK-MEL-5 melanoma = system: SK-MEL-5 melanoma

`CCN1C(=O)N(CC)C2SC(N/N=C/c3ccc(F)cc3)=NC21` (centres undefined) gave a GI50 (SF-539 CNS) of 321 nM, a TGI (SF-539 CNS) of 1430 nM and a GI50 (EKVX NSCLC) of 695 nM. For the same molecule, the TGI (EKVX NSCLC) was over 100000 nM, the GI50 (OVCAR-4 ovarian) was 22400 nM and the TGI (OVCAR-4 ovarian) was over 100000 nM. The GI50 (DU-145 prostate) was 498 nM, the TGI (DU-145 prostate) was over 100000 nM and the GI50 (MDA-MB-435) was 174 nM. It also gave a TGI (MDA-MB-435) of 408 nM, a GI50 (MDA-MB-231 breast) of 955 nM and a TGI (MDA-MB-231 breast) of over 100000 nM. The GI50 (HT29 colon) was 354 nM, the TGI (HT29 colon) was 4460 nM and the GI50 (SK-MEL-2 melanoma) was 507 nM. For the same molecule, the TGI (SK-MEL-2 melanoma) was over 100000 nM, the GI50 (NCI-H226 lung) was 942 nM and the TGI (NCI-H226 lung) was over 100000 nM. For the same molecule, the GI50 (SF-295 CNS) was 348 nM, the TGI (SF-295 CNS) was over 100000 nM and the GI50 (MOLT-4 leukemia) was 479 nM. For the same molecule, the TGI (MOLT-4 leukemia) was over 100000 nM, the GI50 (UO-31 renal) was 631 nM and the TGI (UO-31 renal) was over 100000 nM. The GI50 (TK-10 renal) was 5200 nM, the TGI (TK-10 renal) was over 100000 nM and the GI50 (HOP-92 NSCLC) was 1160 nM. For the same molecule, the TGI (HOP-92 NSCLC) was over 23300 nM, the GI50 (MCF7 breast) was 369 nM and the TGI (MCF7 breast) was over 100000 nM. It also gave a GI50 (IGROV1 ovarian) of 765 nM, a TGI (IGROV1 ovarian) of over 100000 nM and a GI50 (KM12 colon) of 415 nM. It also gave a TGI (KM12 colon) of over 62200 nM, a GI50 (HS 578T breast) of 363 nM and a GI50 (SW-620 colon) of 374 nM. For the same molecule, the TGI (SW-620 colon) was over 100000 nM, the GI50 (NCI-H522 lung) was 250 nM and the TGI (NCI-H522 lung) was 762 nM. For the same molecule, the GI50 (UACC-257 melanoma) was 1260 nM, the TGI (UACC-257 melanoma) was over 100000 nM and the GI50 (OVCAR-3 ovarian) was 370 nM. The TGI (OVCAR-3 ovarian) was 2040 nM, the GI50 (BT-549 breast) was 496 nM and the TGI (BT-549 breast) was 2870 nM. For the same molecule, the GI50 (SNB-19 CNS) was 504 nM, the TGI (SNB-19 CNS) was over 100000 nM and the GI50 (ACHN renal) was 728 nM. For the same molecule, the TGI (ACHN renal) was over 100000 nM, the GI50 (HCC-2998 colon) was 823 nM and the TGI (HCC-2998 colon) was over 100000 nM. For the same molecule, the GI50 (U251 CNS) was 406 nM, the TGI (U251 CNS) was over 74300 nM and the GI50 (HCT-116 colon) was 404 nM. For the same molecule, the TGI (HCT-116 colon) was over 33900 nM, the GI50 (HL-60(TB) leukemia) was 268 nM and the TGI (HL-60(TB) leukemia) was 927 nM. It also gave a GI50 (SN12C renal) of 617 nM, a TGI (SN12C renal) of over 100000 nM and a GI50 (SK-MEL-28 melanoma) of over 30000 nM. The TGI (SK-MEL-28 melanoma) was over 100000 nM, the GI50 (MALME-3M melanoma) was 660 nM and the TGI (MALME-3M melanoma) was over 100000 nM. The GI50 (LOX IMVI melanoma) was 596 nM, the TGI (LOX IMVI melanoma) was over 100000 nM and the GI50 (K-562 leukemia) was 361 nM. The TGI (K-562 leukemia) was over 100000 nM, the GI50 (CAKI-1 renal) was 435 nM and the TGI (CAKI-1 renal) was over 100000 nM. It also gave a GI50 (RPMI-8226 leukemia) of 373 nM, a TGI (RPMI-8226 leukemia) of over 100000 nM and a GI50 (UACC-62 melanoma) of 437 nM. The TGI (UACC-62 melanoma) was over 100000 nM, the GI50 (OVCAR-5 ovarian) was 890 nM and the TGI (OVCAR-5 ovarian) was over 100000 nM. For the same molecule, the GI50 (HOP-62 NSCLC) was 556 nM, the TGI (HOP-62 NSCLC) was over 100000 nM and the GI50 (SR leukemia) was 221 nM. It also gave a TGI (SR leukemia) of over 100000 nM, a GI50 (NCI-H23 lung) of 539 nM and a TGI (NCI-H23 lung) of over 100000 nM. The GI50 (786-0 renal) was 628 nM, the TGI (786-0 renal) was 30100 nM and the GI50 (SF-268 CNS) was 2620 nM. The TGI (SF-268 CNS) was over 100000 nM, the GI50 (NCI-H460 lung) was 362 nM and the GI50 (A498 renal) was 295 nM. It also gave a TGI (A498 renal) of 860 nM, a GI50 (HCT-15 colon) of 429 nM and a TGI (HCT-15 colon) of over 100000 nM. It also gave a GI50 (CCRF-CEM leukemia) of 413 nM, a TGI (CCRF-CEM leukemia) of over 100000 nM and a GI50 (NCI/ADR-RES ovarian) of 428 nM. It also gave a TGI (NCI/ADR-RES ovarian) of over 100000 nM, a GI50 (SK-OV-3 ovarian) of 662 nM and a TGI (SK-OV-3 ovarian) of over 100000 nM. It also gave a GI50 (COLO 205 colon) of 308 nM, a TGI (COLO 205 colon) of 1100 nM and a GI50 (A549 NSCLC) of 611 nM. For the same molecule, the TGI (A549 NSCLC) was over 100000 nM, the GI50 (SNB-75 CNS) was 252 nM and the GI50 (OVCAR-8 ovarian) was 495 nM. The TGI (OVCAR-8 ovarian) was over 24000 nM, the GI50 (M14 melanoma) was 296 nM and the TGI (M14 melanoma) was 14400 nM. It also gave a GI50 (PC-3 prostate) of 436 nM, a TGI (PC-3 prostate) of over 52300 nM and a GI50 (SK-MEL-5 melanoma) of 601 nM. The TGI (SK-MEL-5 melanoma) was over 42200 nM.
